{"source": "patent US20230339900A1", "about": "“CASEIN KINASE 1 DELTA MODULATORS” (Janssen Pharmaceutica NV, priority 2020, published 2023)", "key": {"[1]": {"biological_target": "human CSNK1D tagged with nanoluciferase (Homo sapiens (Human), UniProt P48730)", "sequence (P48730 whole entry)": "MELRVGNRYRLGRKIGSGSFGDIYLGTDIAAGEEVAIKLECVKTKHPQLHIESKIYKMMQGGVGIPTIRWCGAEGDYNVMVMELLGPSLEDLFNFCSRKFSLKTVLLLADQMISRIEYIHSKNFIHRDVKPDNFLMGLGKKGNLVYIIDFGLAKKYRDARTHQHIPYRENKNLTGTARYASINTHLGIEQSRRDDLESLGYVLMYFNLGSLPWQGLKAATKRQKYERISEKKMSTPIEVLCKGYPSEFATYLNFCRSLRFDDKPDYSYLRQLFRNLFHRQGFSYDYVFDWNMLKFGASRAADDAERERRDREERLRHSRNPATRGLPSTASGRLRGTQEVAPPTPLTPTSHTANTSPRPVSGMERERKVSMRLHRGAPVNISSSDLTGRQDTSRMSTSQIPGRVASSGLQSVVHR", "experiment": "Whole Cell nBRET CSNK1D Binding Assay", "conditions": "living CHO cells stably expressing human CSNK1D-nanoluciferase; NanoBret tracer 130 nM; 2 hours 37° C.; read-out: CSNK1D BRET IC50", "outline": "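Live CHO cells stably expressing nanoluciferase-tagged CSNK1D, seeded in serum-free OptiMEM, received compound dose-response plus NanoBRET tracer (130 nM) for 2 h at 37 °C.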"}, "[2]": {"biological_target": "human recombinant GST cleaved CSNK1D (Homo sapiens (Human), UniProt P48730)", "sequence (P48730 whole entry)": "as above", "experiment": "Purified enzyme assay (ADP-Glo Kinase Assay)", "type": "biochemical", "conditions": "2 nM CSNK1D, peptide substrate 150 μM, ATP 20 μM, 45 minutes room temperature"}}}
{"smiles": "COc1ccc2c(-c3cn(C)nc3-c3ccc(F)cn3)cc(C)nc2c1", "note": "[Example 110, 4-[3-(5-Fluoro-2-pyridyl)-1-methyl-pyrazol-4-yl]-7-methoxy-2-methyl-quinoline]", "values": [{"measurement": "IC50", "setting": "[1]", "value": "> 10000", "unit": "nM"}, {"measurement": "AC50", "setting": "[2]", "value": 5360, "unit": "nM"}]}
{"smiles": "Cc1cc(-c2cn(C)nc2-c2ccncc2Cl)c2cn[nH]c2n1", "note": "[Example 138, 4-[3-(3-Chloro-4-pyridyl)-1-methyl-pyrazol-4-yl]-6-methyl-1H-pyrazolo[3,4-b]pyridine]", "values": [{"measurement": "IC50", "setting": "[1]", "value": 8620, "unit": "nM"}, {"measurement": "AC50", "setting": "[2]", "value": 217, "unit": "nM"}]}
{"smiles": "Cn1cc(-c2ccnc3cc(C#N)ccc23)c(-c2ccc(F)cn2)n1", "note": "[Example 149, 4-[3-(5-Fluoro-2-pyridyl)-1-methyl-pyrazol-4-yl]quinoline-7-carbonitrile]", "values": [{"measurement": "IC50", "setting": "[1]", "value": "> 10000", "unit": "nM"}, {"measurement": "AC50", "setting": "[2]", "value": 124, "unit": "nM"}]}
{"smiles": "Cc1cc(-c2cn(C)nc2-c2ncco2)c2cn[nH]c2n1", "note": "[Example 8, 2-(1-Methyl-4-(6-methyl-1H-pyrazolo[3,4-b]pyridin-4-yl)-1H-pyrazol-3-yl)oxazole]", "values": [{"measurement": "IC50", "setting": "[1]", "value": "> 10000", "unit": "nM"}, {"measurement": "AC50", "setting": "[2]", "value": 783, "unit": "nM"}]}
{"smiles": "Cc1c[nH]c2nccc(-c3cn(C)nc3-c3ccc(F)cn3)c12", "note": "[Example 82, 4-[3-(5-Fluoro-2-pyridyl)-1-methyl-pyrazol-4-yl]-3-methyl-1H-pyrrolo[2,3-b]pyridine]", "values": [{"measurement": "IC50", "setting": "[1]", "value": 59, "unit": "nM"}, {"measurement": "AC50", "setting": "[2]", "value": 6, "unit": "nM"}]}
{"smiles": "Cn1cc(-c2ccnc3[nH]cc(F)c23)c(-c2ccc(F)cn2)n1", "note": "[Example 77, 3-Fluoro-4-[3-(5-fluoro-2-pyridyl)-1-methyl-pyrazol-4-yl]-1H-pyrrolo[2,3-b]pyridine]", "values": [{"measurement": "IC50", "setting": "[1]", "value": 53, "unit": "nM"}, {"measurement": "AC50", "setting": "[2]", "value": 7, "unit": "nM"}]}
{"smiles": "Cc1cnc2[nH]ccc2c1-c1cn(C)nc1-c1ccc(F)cn1", "note": "[Example 79, 4-[3-(5-Fluoro-2-pyridyl)-1-methyl-pyrazol-4-yl]-5-methyl-1H-pyrrolo[2,3-b]pyridine]", "values": [{"measurement": "IC50", "setting": "[1]", "value": 52, "unit": "nM"}, {"measurement": "AC50", "setting": "[2]", "value": 7, "unit": "nM"}]}
{"smiles": "Cn1cc(-c2ccnc3[nH]cc(Cl)c23)c(-c2ccc(F)cn2)n1", "note": "[Example 76, 3-Chloro-4-[3-(5-fluoro-2-pyridyl)-1-methyl-pyrazol-4-yl]-1H-pyrrolo[2,3-b]pyridine]", "values": [{"measurement": "IC50", "setting": "[1]", "value": 17, "unit": "nM"}, {"measurement": "AC50", "setting": "[2]", "value": 1, "unit": "nM"}]}
{"smiles": "CC(C)n1cc(-c2ccnc3[nH]ccc23)c(-c2ccc(F)cn2)n1", "note": "[Example 58, 4-[3-(5-Fluoro-2-pyridyl)-1-isopropyl-pyrazol-4-yl]-1H-pyrrolo[2,3-b]pyridine]", "values": [{"measurement": "IC50", "setting": "[1]", "value": 97, "unit": "nM"}, {"measurement": "AC50", "setting": "[2]", "value": 17, "unit": "nM"}]}
{"smiles": "Cc1ccc(-c2nn(C)cc2-c2ccnc3[nH]ccc23)cn1", "note": "[Example 22, 4-[1-Methyl-3-(6-methyl-3-pyridyl)pyrazol-4-yl]-1H-pyrrolo[2,3-b]pyridine]", "values": [{"measurement": "IC50", "setting": "[1]", "value": 1170, "unit": "nM"}, {"measurement": "AC50", "setting": "[2]", "value": 44, "unit": "nM"}]}
{"smiles": "Cn1cc(-c2ccnc3cc(C(F)(F)F)ccc23)c(-c2ccc(F)cn2)n1", "note": "[Example 107, 4-[3-(5-Fluoro-2-pyridyl)-1-methyl-pyrazol-4-yl]-7-(trifluoromethyl)quinoline]", "values": [{"measurement": "IC50", "setting": "[1]", "value": 264, "unit": "nM"}, {"measurement": "AC50", "setting": "[2]", "value": 31, "unit": "nM"}]}
{"smiles": "Cn1cc(-c2ccnc3[nH]ccc23)c(-c2cncn2C)n1", "note": "[Example 10, 4-(1-Methyl-3-(1-methyl-1H-imidazol-5-yl)-1H-pyrazol-4-yl)-1H-pyrrolo[2,3-b]pyridine]", "values": [{"measurement": "IC50", "setting": "[1]", "value": "> 10000", "unit": "nM"}, {"measurement": "AC50", "setting": "[2]", "value": 2280, "unit": "nM"}]}
{"smiles": "Cn1cc(-c2ccnc3ccsc23)c(-c2ccc(F)cn2)n1", "note": "[Example 118, 7-(3-(5-Fluoropyridin-2-yl)-1-methyl-1H-pyrazol-4-yl)thieno[3,2-b]pyridine]", "values": [{"measurement": "IC50", "setting": "[1]", "value": 376, "unit": "nM"}, {"measurement": "AC50", "setting": "[2]", "value": 24, "unit": "nM"}]}
{"smiles": "Cc1cc(-c2cn(C)nc2-c2ccc(F)cn2)c2cn[nH]c2n1", "note": "[Example 99, 4-(3-(5-Fluoropyridin-2-yl)-1-methyl-1H-pyrazol-4-yl)-6-methyl-1H-pyrazolo[3,4-b]pyridine]", "values": [{"measurement": "IC50", "setting": "[1]", "value": 238, "unit": "nM"}, {"measurement": "AC50", "setting": "[2]", "value": 11, "unit": "nM"}]}
{"smiles": "CC(C)n1cc(-c2ccnc3[nH]ncc23)c(-c2ccc(F)cn2)n1", "note": "[Example 59, 4-(3-(5-Fluoropyridin-2-yl)-1-isopropyl-1H-pyrazol-4-yl)-1H-pyrazolo[3,4-b]pyridine]", "values": [{"measurement": "IC50", "setting": "[1]", "value": 326, "unit": "nM"}, {"measurement": "AC50", "setting": "[2]", "value": 44, "unit": "nM"}]}
{"smiles": "Cn1cc(-c2ccnc3cc(Cl)ccc23)c(-c2ccc(F)cn2)n1", "note": "[Example 105, 7-Chloro-4-[3-(5-fluoro-2-pyridyl)-1-methyl-pyrazol-4-yl]quinoline]", "values": [{"measurement": "IC50", "setting": "[1]", "value": 817, "unit": "nM"}, {"measurement": "AC50", "setting": "[2]", "value": 25, "unit": "nM"}]}
